Columns and labels:
CAL-62 = assay: Half inhibitory concentration (IC50) against tumor cells, Cell Counting Kit-8; format: cell-based; conditions: Homo sapiens, CCK-8, 96 h treatment, read-out: inhibitory activity (IC50, nM) against tumor cells proliferation
Method: (§1) The tumor cells used herein were cultured in a cell culture medium listed in table A at 37° C. in an incubator with 5% CO2.
(§2) After the cells were treated with the compounds of the present disclosure for a period of time, the cell viability detection reagent was added to the culture medium for cell viability assessment according to the instructions provided with the CCK-8 kit. […] The growth inhibition of the compounds of the present disclosure on cells was plotted by Prism Graphpad software, and the IC50 values of the compounds of the present disclosure were calculated therefrom.

CCRF-CEM = assay: as above; format: cell-based; conditions: Homo sapiens, CCK-8, 96 h treatment, read-out: inhibitory activity (IC50, nM) against tumor cells proliferation
Method: as §1, §2

Daudi = assay: as above; format: cell-based; conditions: Homo sapiens, CCK-8, 96 h treatment, read-out: inhibitory activity (IC50, nM) against tumor cells proliferation
Method: as §1, §2

JEKO-1 = assay: as above; format: cell-based; conditions: Homo sapiens, CCK-8, 96 h treatment, read-out: inhibitory activity (IC50, nM) against tumor cells proliferation
Method: as §1, §2

Kasumi-1 = assay: as above; format: cell-based; conditions: Homo sapiens, CCK-8, 96 h treatment, read-out: inhibitory activity (IC50, nM) against tumor cells proliferation
Method: as §1, §2

MDA-MB-231 = assay: as above; format: cell-based; conditions: Homo sapiens, CCK-8, 96 h treatment, read-out: inhibitory activity (IC50, nM) against tumor cells proliferation
Method: as §1, §2

MM.1R = assay: as above; format: cell-based; conditions: Homo sapiens, CCK-8, 96 h treatment, read-out: inhibitory activity (IC50, nM) against tumor cells proliferation
Method: as §1, §2

MM.1S = assay: as above; format: cell-based; conditions: Homo sapiens, MM1.S, CCK-8, 96 h treatment, read-out: inhibitory activity (IC50, nM) against tumor cells proliferation
Method: as §1, §2

MV-4-11 = assay: as above; format: cell-based; conditions: Homo sapiens, MV4-11, CCK-8, 96 h treatment, read-out: inhibitory activity (IC50, nM) against tumor cells proliferation
Method: as §1, §2

THP-1 = assay: as above; format: cell-based; conditions: Homo sapiens, CCK-8, 96 h treatment, read-out: inhibitory activity (IC50, nM) against tumor cells proliferation
Method: as §1, §2

[1] = target: T1, human Cereblon WT GST-tagged protein (Homo sapiens, UniProt Q96SW2); assay: CRBN-binding affinity, HTRF (CEREBLON BINDING kit); conditions: displacement of Thalidomide-Re reagent, 3 hours at room temperature
T1 construct: purchased CISBIO 64BDCRBNPEH
Outline: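 Compounds displace a thalidomide-Re tracer from GST-tagged human Cereblon WT, detected with an Eu-labelled anti-GST antibody by time-resolved fluorescence. Signal at 620 nm was normalised against solvent and blank controls.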

IKZF1 = target: T2, IKZF1 (Homo sapiens, UniProt Q13422+Q96SW2); assay: Western-blot assay, substrate protein in hPBMCs; format: cell-based; conditions: hPBMC cells, 24 hours, tested at 50 nM and 500 nM, table does not say which
T2 construct: endogenous in cells; host or cells: human PBMCs (Milecell Biotechnologies)
Outline: (§3)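 hPBMCs (1×10^6 cells/mL) exposed 24 h to compound at 50 nM and 500 nM, lysed, and probed by Western blot. Band grayscale normalized to internal control gives % protein remaining versus DMSO; DC50 from concentration-response fit at half DMSO band intensity.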

IKZF3 = target: T3, IKZF3 (Homo sapiens, UniProt Q96SW2+Q9UKT9); assay: Western-blot assay, substrate protein in hPBMCs; format: cell-based; conditions: hPBMC cells, 24 hours, tested at 50 nM and 500 nM, table does not say which
T3 construct: endogenous in cells; host or cells: human PBMCs (Milecell Biotechnologies)
Outline: as §3

CK1α = target: T4, CK1α (Homo sapiens, UniProt P48729+Q96SW2); assay: Western-blot assay, substrate protein in hPBMCs; format: cell-based; conditions: hPBMC cells, 24 hours, tested at 50 nM and 500 nM, table does not say which
T4 construct: endogenous in cells; host or cells: human PBMCs (Milecell Biotechnologies)
Outline: (§4)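 Thawed hPBMCs, 1×10^6 cells/mL; 24 h compound; RIPA + phosphatase inhibitor lysis, BCA-normalised loading, SDS-PAGE, NC transfer, immunodetection. Bands vs internal control → % remaining; DC50 = concentration at 50% of DMSO band intensity.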

GSPT1 = target: T5, GSPT1 (Homo sapiens, UniProt P15170+Q96SW2); assay: Western-blot assay, substrate protein in hPBMCs; format: cell-based; conditions: hPBMC cells, 24 hours, tested at 50 nM and 500 nM, table does not say which
T5 construct: endogenous in cells; host or cells: human PBMCs (Milecell Biotechnologies)
Outline: as §4

IKZF2 = target: T6, IKZF2 (Homo sapiens, UniProt Q96SW2+Q9UKS7); assay: Western-blot assay, substrate protein in hPBMCs; format: cell-based; conditions: hPBMC cells, 24 hours, tested at 50 nM and 500 nM, table does not say which
T6 construct: endogenous in cells; host or cells: human PBMCs (Milecell Biotechnologies)
Outline: as §4

Wee1 = target: T7, Wee1 (Homo sapiens, UniProt P30291+Q96SW2); assay: Western-blot assay, substrate protein in hPBMCs; format: cell-based; conditions: hPBMC cells, 24 hours, tested at 50 nM and 500 nM, table does not say which
T7 construct: endogenous in cells; host or cells: human PBMCs (Milecell Biotechnologies)
Outline: as §4

T4 sequence (P48729 whole entry): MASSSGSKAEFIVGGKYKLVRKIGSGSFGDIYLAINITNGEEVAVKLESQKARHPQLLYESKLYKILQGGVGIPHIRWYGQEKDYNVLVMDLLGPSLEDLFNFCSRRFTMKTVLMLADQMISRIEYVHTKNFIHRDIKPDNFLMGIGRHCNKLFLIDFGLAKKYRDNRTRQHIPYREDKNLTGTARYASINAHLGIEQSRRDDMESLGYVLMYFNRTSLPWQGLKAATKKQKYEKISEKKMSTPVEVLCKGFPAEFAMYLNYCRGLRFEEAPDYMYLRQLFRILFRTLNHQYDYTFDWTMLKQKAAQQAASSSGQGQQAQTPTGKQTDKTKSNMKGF
T4 sequence (Q96SW2 whole entry): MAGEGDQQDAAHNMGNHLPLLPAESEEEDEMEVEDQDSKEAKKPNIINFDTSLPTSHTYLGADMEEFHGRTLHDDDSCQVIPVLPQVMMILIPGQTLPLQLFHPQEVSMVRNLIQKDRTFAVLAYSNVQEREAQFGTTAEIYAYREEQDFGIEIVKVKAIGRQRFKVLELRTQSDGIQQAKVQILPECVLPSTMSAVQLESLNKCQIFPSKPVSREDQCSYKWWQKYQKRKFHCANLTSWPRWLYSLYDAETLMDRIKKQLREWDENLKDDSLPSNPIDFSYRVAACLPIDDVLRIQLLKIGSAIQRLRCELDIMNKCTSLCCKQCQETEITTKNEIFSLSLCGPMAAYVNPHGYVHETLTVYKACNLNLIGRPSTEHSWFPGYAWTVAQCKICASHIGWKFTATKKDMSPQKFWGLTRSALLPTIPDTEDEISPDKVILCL
T4 sequence (Q16531 whole entry partner): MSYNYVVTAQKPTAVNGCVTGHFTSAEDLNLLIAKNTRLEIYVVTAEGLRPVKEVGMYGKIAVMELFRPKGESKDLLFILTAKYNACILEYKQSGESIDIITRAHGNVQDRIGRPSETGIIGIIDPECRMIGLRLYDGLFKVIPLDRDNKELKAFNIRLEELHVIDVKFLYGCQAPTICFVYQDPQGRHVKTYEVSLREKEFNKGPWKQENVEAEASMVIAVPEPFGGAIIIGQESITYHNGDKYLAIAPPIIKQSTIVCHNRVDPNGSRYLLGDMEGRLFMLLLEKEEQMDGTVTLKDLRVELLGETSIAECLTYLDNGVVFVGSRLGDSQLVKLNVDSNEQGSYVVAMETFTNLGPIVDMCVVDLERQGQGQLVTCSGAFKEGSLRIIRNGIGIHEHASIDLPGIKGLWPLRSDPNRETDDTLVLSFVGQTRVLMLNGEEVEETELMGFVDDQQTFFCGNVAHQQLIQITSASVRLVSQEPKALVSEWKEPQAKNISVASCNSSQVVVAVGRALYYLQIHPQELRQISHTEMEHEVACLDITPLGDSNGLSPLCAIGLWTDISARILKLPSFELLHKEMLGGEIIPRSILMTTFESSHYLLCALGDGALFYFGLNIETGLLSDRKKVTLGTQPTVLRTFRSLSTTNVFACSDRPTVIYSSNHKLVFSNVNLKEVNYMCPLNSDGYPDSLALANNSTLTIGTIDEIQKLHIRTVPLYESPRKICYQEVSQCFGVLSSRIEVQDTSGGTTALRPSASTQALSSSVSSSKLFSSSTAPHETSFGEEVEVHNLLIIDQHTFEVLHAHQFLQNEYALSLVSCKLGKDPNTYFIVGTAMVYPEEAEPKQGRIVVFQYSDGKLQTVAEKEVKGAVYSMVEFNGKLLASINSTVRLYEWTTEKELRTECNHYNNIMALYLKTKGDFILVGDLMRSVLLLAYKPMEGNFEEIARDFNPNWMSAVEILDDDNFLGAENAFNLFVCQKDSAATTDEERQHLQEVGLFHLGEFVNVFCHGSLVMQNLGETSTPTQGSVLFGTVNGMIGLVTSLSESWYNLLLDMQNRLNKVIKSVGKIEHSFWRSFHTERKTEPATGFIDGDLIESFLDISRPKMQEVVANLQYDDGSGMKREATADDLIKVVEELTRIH
T1 sequence (Q96SW2 whole entry): as the sequence (Q96SW2 whole entry) above
T2 sequence (Q13422 whole entry): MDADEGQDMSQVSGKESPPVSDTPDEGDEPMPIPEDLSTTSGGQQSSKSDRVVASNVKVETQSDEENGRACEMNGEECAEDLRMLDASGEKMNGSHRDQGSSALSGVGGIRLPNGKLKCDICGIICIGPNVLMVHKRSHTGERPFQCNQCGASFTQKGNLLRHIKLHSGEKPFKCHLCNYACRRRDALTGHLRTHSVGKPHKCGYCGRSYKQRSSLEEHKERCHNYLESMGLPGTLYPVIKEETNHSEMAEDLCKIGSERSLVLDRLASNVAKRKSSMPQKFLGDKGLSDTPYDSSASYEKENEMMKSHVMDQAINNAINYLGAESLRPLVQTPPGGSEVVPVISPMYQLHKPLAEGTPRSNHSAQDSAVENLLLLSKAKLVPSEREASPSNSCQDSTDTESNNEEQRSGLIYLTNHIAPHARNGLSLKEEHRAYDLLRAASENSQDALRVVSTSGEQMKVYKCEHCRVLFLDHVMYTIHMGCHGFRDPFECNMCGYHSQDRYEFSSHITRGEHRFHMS
T2 sequence (Q96SW2 whole entry): as the sequence (Q96SW2 whole entry) above
T2 sequence (Q16531 whole entry partner): as the sequence (Q16531 whole entry partner) above
T5 sequence (P15170 whole entry): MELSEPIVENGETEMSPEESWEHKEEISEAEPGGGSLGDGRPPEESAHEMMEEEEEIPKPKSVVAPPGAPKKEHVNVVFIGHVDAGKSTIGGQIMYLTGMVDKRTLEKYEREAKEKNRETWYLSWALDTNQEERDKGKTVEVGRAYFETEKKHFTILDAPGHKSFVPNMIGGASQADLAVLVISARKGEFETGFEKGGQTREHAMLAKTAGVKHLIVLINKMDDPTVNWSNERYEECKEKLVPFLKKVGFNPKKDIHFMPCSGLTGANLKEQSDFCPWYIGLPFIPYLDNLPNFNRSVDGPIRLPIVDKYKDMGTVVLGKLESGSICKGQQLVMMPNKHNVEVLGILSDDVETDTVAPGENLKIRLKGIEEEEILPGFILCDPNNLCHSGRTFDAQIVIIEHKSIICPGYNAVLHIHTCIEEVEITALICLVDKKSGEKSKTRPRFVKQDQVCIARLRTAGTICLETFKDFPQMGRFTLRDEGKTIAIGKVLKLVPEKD
T5 sequence (Q96SW2 whole entry): as the sequence (Q96SW2 whole entry) above
T5 sequence (Q16531 whole entry partner): as the sequence (Q16531 whole entry partner) above
T3 sequence (Q9UKT9 whole entry): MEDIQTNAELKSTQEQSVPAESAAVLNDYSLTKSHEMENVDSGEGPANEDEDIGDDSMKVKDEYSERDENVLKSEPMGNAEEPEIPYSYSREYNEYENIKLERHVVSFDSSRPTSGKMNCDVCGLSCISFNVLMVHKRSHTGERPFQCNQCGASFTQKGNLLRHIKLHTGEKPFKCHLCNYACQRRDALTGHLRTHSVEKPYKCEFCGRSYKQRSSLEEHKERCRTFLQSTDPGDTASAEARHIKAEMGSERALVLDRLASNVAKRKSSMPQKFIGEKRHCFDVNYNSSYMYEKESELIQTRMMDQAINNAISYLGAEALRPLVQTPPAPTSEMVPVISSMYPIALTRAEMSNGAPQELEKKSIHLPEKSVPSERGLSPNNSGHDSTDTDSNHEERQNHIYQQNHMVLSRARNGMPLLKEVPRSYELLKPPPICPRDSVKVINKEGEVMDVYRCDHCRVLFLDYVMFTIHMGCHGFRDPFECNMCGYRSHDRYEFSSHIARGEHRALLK
T3 sequence (Q96SW2 whole entry): as the sequence (Q96SW2 whole entry) above
T3 sequence (Q16531 whole entry partner): as the sequence (Q16531 whole entry partner) above
T7 sequence (P30291 whole entry): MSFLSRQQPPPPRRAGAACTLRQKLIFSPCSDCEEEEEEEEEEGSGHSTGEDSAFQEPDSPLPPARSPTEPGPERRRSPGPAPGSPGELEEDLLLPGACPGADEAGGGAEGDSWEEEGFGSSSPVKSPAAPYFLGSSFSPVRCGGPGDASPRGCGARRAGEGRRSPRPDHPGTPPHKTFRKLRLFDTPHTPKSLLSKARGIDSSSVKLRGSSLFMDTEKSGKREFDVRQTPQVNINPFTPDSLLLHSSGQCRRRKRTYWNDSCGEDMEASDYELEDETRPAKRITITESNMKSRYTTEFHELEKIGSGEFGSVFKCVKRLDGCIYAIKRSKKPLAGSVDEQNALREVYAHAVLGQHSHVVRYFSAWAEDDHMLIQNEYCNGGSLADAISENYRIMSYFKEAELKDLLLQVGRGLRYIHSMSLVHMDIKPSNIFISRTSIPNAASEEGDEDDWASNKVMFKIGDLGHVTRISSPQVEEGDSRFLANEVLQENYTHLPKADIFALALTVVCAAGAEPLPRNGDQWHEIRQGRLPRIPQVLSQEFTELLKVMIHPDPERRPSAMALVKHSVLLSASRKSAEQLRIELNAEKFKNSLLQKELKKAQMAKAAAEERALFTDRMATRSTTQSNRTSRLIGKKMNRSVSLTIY
T7 sequence (Q96SW2 whole entry): as the sequence (Q96SW2 whole entry) above
T7 sequence (Q16531 whole entry partner): as the sequence (Q16531 whole entry partner) above

Row | SMILES | IC50 (CAL-62) | IC50 (CCRF-CEM) | IC50 (Daudi) | IC50 (JEKO-1) | IC50 (Kasumi-1) | IC50 (MDA-MB-231) | IC50 (MM.1R) | IC50 (MM.1S) | IC50 (MV-4-11) | IC50 (THP-1) | IC50 [1] | substrate protein remaining % (IKZF1) | substrate protein remaining % (IKZF3) | substrate protein remaining % (CK1α) | substrate protein remaining % (GSPT1) | substrate protein remaining % (IKZF2) | substrate protein remaining % (Wee1)
1 | O=C1CCC(N2Cc3cc(SC4CN(Cc5ccccc5-c5ccc(Cl)cc5)C4)ccc3C2=O)C(=O)N1 (stereo not shown) [GT-03360, 3-(5-((1-((4′-chloro-[1,1′-biphenyl]-2-yl)methyl)azetidin-3-yl)thio)-1-oxoisoindolin-2-yl)piperidine-2,6-dione] | 50 to 100 nM | 50 to 100 nM | < 1 nM | 100 to 500 nM | 100 to 500 nM | 100 to 500 nM | 50 to 100 nM | 100 to 500 nM | 100 to 500 nM | 10 to 50 nM | < 500 nM | A (0%≤ substrate protein remaining % ≤80%) | A (0%≤ substrate protein remaining % ≤80%) | A (0%≤ substrate protein remaining % ≤80%) | A (0%≤ substrate protein remaining % ≤80%) | A (0%≤ substrate protein remaining % ≤80%) | 
2 | O=C1CCC(N2Cc3cc(OC4CN(Cc5ccccc5-c5ccc(Cl)cc5)C4)ccc3C2=O)C(=O)N1 (stereo not shown) [GT-03363, 3-(5-((1-((4′-chloro-[1,1′-biphenyl]-2-yl)methyl)azetidin-3-yl)oxy)-1-oxoisoindolin-2-yl)piperidine-2,6-dione] |  | 100 to 500 nM |  | 100 to 500 nM |  |  |  |  |  |  | 500 to 1000 nM | A (0%≤ substrate protein remaining % ≤80%) | A (0%≤ substrate protein remaining % ≤80%) | A (0%≤ substrate protein remaining % ≤80%) | A (0%≤ substrate protein remaining % ≤80%) |  | A (0%≤ substrate protein remaining % ≤80%)
3 | Nc1cccc2c1C(=O)N(C1CCC(=O)NC1=O)C2=O (stereo not shown) [pomalidomide, reference compound] | > 10000 nM | > 10000 nM | > 10000 nM | > 10000 nM | > 10000 nM | > 10000 nM | > 10000 nM | 500 to 1000 nM | > 10000 nM | > 10000 nM |  |  |  |  |  |  | 

— US20260207578A1, “COMPOUND BASED ON SULFUR/OXYGEN SUBSTITUTED GLUTARIMIDE-BASED ISOINDOLINONE SKELETON AND USE THEREOF” (Gluetacs Therapeutics (Shanghai) Co., LTD., priority 2022, published 2026)
